“Also recorded” adds a separate entry of the source.
Columns and labels:
IGR-OV1 cells = assay: Oncological test against IGR-OV1 cells; type: cell-based, human; conditions: IGR-OV1, FIGS. 12 and 13
Excerpt: (§1) FIGS. 10 to 17 show the activity of compounds ESP_2.2, ESP_2.5 and ESP_31 according to the invention as well as the comparative examples ESP_2 and ESP_3 (Table 4) in relation to the concentration employed against various different cancer cells. […] The x-axis depicts the molar concentration of the respective compound on a logarithmical scale.
The epithelial morphology of IGR-OV1 cells was retained during in vitro and in vivo passages. Two cytogenetic markers characterize IGR-OV1 cells: a paracentric inversion of chromosome 3, and a translocation between chromosomes 2 and 5. These characteristics make the IGR-OV1 cell line a suitable experimental model for the treatment of human ovarian carcinomas and for biological studies of human solid tumors.

[1] = system: primary clear renal cell adenocarcinoma (cell line 786-0); assay: Oncological test against 786-0 cells; type: cell-based; conditions: 786-0, FIGS. 16 and 17
Excerpt: as §1
This cell line is derived from a primary clear renal cell adenocarcinoma. The cells display both microvilli and desmosomes, and can be grown in soft agar. The cells produce a PTH like peptides that is identical to peptides produced by breast and lung tumors. The peptide has an N terminal sequence similar to PTH, has PTH like activity, and has a molecular weight of 6000 daltons.

[2] = system: human colorectal adenocarcinoma cell line HCT15; type: cell-based; conditions: for activity on cell growth (growth inhibition / cytotoxic effect): HCT-15, FIGS. 14 and 15
Excerpt: The x-axis depicts the molar concentration of the respective compound on a logarithmical scale.

various cancer cells = assay: Oncological tests, summary over FIGS. 10 to 17; type: cell-based; conditions: ovarian, colon and kidney cancer cells
Excerpt: as §1

| Compound | melting point [°C] | also measured |
| --- | --- | --- |
| CCCCCCCCCCCCCCCCCCN(CCCCO)CCCCCCCCCCCCCCCCCC [Compound 48a, 4-(Dioctadecylamino)butan-1-ol] | 57 to 58 |  |
| O=c1ccn([C@@H]2O[C@H](CO)[C@@H](O)[C@H]2O)c(=O)[nH]1 [ESP_3, uridine, reference compound] |  | activity on cell growth (growth inhibition / cytotoxic effect) (IGR-OV1 cells): did not even cause a growth inhibition; activity on cell growth (growth inhibition / cytotoxic effect) [1]: does not show any activity at all; also recorded: did not show any activity at all |
| CCCCCCCCCCCCCC1(CCCCCCCCCCCCC)O[C@@H]2[C@H](O1)[C@@H](CO)O[C@H]2n1ccc(=O)[nH]c1=O [Compound 25c, 1-((3aR,4R,6R,6aR)-6-(hydroxymethyl)-2,2-ditridecyltetrahydrofuro[3,4-d][1,3]dioxol-4-yl)pyrimidin-2,4(1H,3H)-dione] | 90.1 |  |
| CCCCCCCCCCCCCCCCCCNC(=O)CCC(=O)O [Compound 58, 4-(Octadecylamino)-4-oxobutanoic acid] | 124 to 125 |  |
| CCCCCCCCCCCCCCCCCCN(CC#CCN(CCCCCCCCCCCCCCCCCC)CCCCCCCCCCCCCCCCCC)CCCCCCCCCCCCCCCCCC [Compound 52, N,N,N′,N′-Tetraoctadecylbut-2-yne-1,4-diamine] | 55 to 56 |  |
| CCCCCCCCCCCCCCCCCCN(CCCCCCCCCCCCCCCCCC)C(=O)CCC(=O)OC [Compound 47, Methyl 4-(dioctadecylamino)-4-oxobutanoate] | 29 to 30 |  |
| C#CCN(CCCCO)CCCCCCCCCCCCCCCCCC [Compound 63, 4-[Octadecyl(prop-2-ynyl)amino]butan-1-ol] | 33 to 34 |  |
| CCOC(=O)CC[C@@]1(C)O[C@@H]2[C@H](O1)[C@@H](COC(c1ccccc1)(c1ccccc1)c1ccc(OC)cc1)O[C@H]2n1ncc(=O)[nH]c1=O [ESP_2.2, Ethyl-3-((3aR,4R,6R,6aR)-4-(3,5-dioxo-4,5-dihydro-1,2,4-triazin-2(3H)-yl)-6-(((4-methoxyphenyl)diphenylmethoxy)methyl)-2-methyltetrahydrofuro[3,4-d][1,3]dioxol-2-yl)propanoate] |  | activity on cell growth (growth inhibition / cytotoxic effect) (IGR-OV1 cells): activity of the compound could be increased; activity on cell growth (growth inhibition / cytotoxic effect) [2]: increased activity |
| CCCCCCCCCCCCCCCCCCNC(=O)CCCO [Compound 62, 4-Hydroxy-N-octadecylbutanamide] | 86 to 87 |  |
| CCCCCCCCCCCCCCCCCCN(CCCO)CCCCCCCCCCCCCCCCCC [Compound 42, 3-(Dioctadecylamino)propanol] | 48 to 49 |  |
| CCCCCCCCCCCCCCCCCCN(CCCCCCCCCCCCCCCCCC)C(=O)CCC(=O)O [Compound 46, 4-(Dioctadecylamino)-4-oxobutanoic acid] | 68 to 69 |  |
| CCCCCCCCCC1(CCCCCCCCC)O[C@@H]2[C@H](O1)[C@@H](CO)O[C@H]2n1ccc(=O)[nH]c1=O [Compound 25b, 1-((3aR,4R,6R,6aR)-6-(hydroxymethyl)-2,2-dinonyltetrahydrofuro[3,4-d][1,3]dioxol-4-yl)pyrimidin-2,4(1H,3H)-dione] | 69.8 |  |
| COc1ccc(C(OC[C@H]2O[C@@H](n3cnc4c(=O)n(C/C=C(\C)CC/C=C(\C)CCC=C(C)C)cnc43)C[C@@H]2O)(c2ccccc2)c2ccc(OC)cc2)cc1 [Compound 4b, 9-((2R,4S,5R)-5-((Bis(4-methoxyphenyl)(phenyl)methoxy)-methyl)-4-hydroxytetrahydrofuran-2-yl)-1-((2E,6E)-3,7,11-trimethyldodeca-2,6,10-trienyl)-1H-purin-6(9H)-on] | 68 |  |
| CCCCCCCCCCCCCCCCCCNC(=O)CCC(=O)OC [Compound 59, Methyl 4-(octadecylamino)-4-oxobutanoate] | 86 to 87 |  |
| CCCCCCCCCCCCCCCCCCN(CCBr)CCCCCCCCCCCCCCCCCC | 69 to 71 |  |
| CCCCCCCCCCCCCCCCCCN(CCCCCCCCCCCCCCCCCC)CC(=O)O [Compound 37, N,N-dioctadecylglycine] | 102 to 103 |  |
| CCCCCCCCCCCCCCCCCCN(CC#CCCl)CCCCCCCCCCCCCCCCCC [Compound 51, 4-Chloro-N,N-dioctadecylbut-2-yn-1-amine] | 51 to 52 |  |
| C#CCN(CC#C)CCCCCCCCCCCCCCCCCC [Compound 57, N-Octadecyl-N,N-diprop-2-ynylamine] | 43 to 44 |  |
| CCCCCCCCCCCCCCCCCCN(CCCCCCCCCCCCCCCCCC)C(C)C(=O)OC (stereo not drawn) [Compound 41, Methyl N,N-dioctadecyl-2-aminopropionate] | 44 to 45 |  |
| CCOC(=O)CCC1(C)O[C@@H]2[C@H](O1)[C@@H](CO)O[C@H]2n1ncc(=O)n(C/C=C(\C)CC/C=C(\C)CCC=C(C)C)c1=O (stereo partly drawn) [ESP_2.5, Ethyl-3-((3aR,4R,6R,6aR)-4-(3,5-dioxo-4-((2E,6E)-3,7,11-trimethyldodeca-2,6,10-trien-1-yl)-4,5-dihydro-1,2,4-triazin-2 (3H)-yl)-6-(hydroxymethyl)-2-methyltetrahydrofuro[3,4-d][1,3]dioxol-2-yl)propanoate] |  | activity on cell growth (growth inhibition / cytotoxic effect) (IGR-OV1 cells): improved inhibition effect; activity / cytotoxicity against various cancer cells (various cancer cells): particular high cytotoxicity; activity on cell growth (growth inhibition / cytotoxic effect) [1]: high cytotoxic effect; activity on cell growth (growth inhibition / cytotoxic effect) [2]: increased activity; death of the cells (cytotoxic effect) ([2]; HCT-15, employed in high dosage): over 50% |
| CCCCCCCCCCCCCCCCCCN1CCCC1 | 25 to 27 |  |
| CCCCCCCCCC1(CCCCCCCCC)OC2[C@@H](CO)O[C@@H](n3ccc(=O)[nH]c3=O)[C@H]2O1 (stereo partly drawn) [ESP_31] |  | activity on cell growth (growth inhibition / cytotoxic effect) (IGR-OV1 cells): vast improvement with respect to the cytotoxic activity; activity on cell growth (growth inhibition / cytotoxic effect) [1]: cytotoxic effect; activity on cell growth (growth inhibition / cytotoxic effect) [2]: high cytotoxic activity |
| CCCCCCCCCCCCCCCCCCNCCCCO [Compound 60, 4-(Octadecylamino)butan-1-ol] | 68 to 69 |  |
| COc1ccc(C(OC[C@H]2O[C@@H](n3cnc4c(=O)n(C/C=C(\C)CCC=C(C)C)cnc43)C[C@@H]2O)(c2ccccc2)c2ccc(OC)cc2)cc1 [Compound 4a, 9-((2R,4S,5R)-5-((Bis(4-methoxyphenyl)(phenyl)methoxy)-methyl)-4-hydroxytetrahydrofuran-2-yl)-1-((E)-3,7-di-methylocta-2,6-dienyl)-1H-purin-6(9H)-one] | 74 |  |
| CCCCCCCCCCCCCCCC1(CCCCCCCCCCCCCCC)OC2C(CO)OC(n3ccc(=O)[nH]c3=O)C2O1 (stereo not drawn) [Compound 25d, 1-(6-Hydroxymethyl-2,2-dipentadecyl-tetrahydro-furo[3,4-d][1,3]dioxol-4-yl)-1H-pyrimidin-2,4-dione] | 93 |  |

— patent US20190175633A1, “REACTIVE, LIPOPHILIC NUCLEOSIDE BUILDING BLOCKS FOR THE SYNTHESIS OF HYDROPHOBIC NUCLEIC ACIDS” (Ionovation GmbH, priority 2017, published 2019)
